Results as given in patent publication US8088402B2, “Bone growth compositions and methods” (Neuropro Technologies, Inc., priority 2002, dated 2012).

System: male Sprague Dawley rats
Assay: Manual palpation scoring of spinal fusion strength after decortication in rats
Format: in vivo, rat
Experimental: Twelve male Sprague Dawley rats, each weighing approximately 500 grams were selected. Each rat underwent anesthesia with Nembutal (50 mg/kg i.p.). Incision over two regions, the thoracic and lumbar, of the spine in each animal were made. Each incision allowed for the exposure of spinous processes and lamina of at east 2 levels per region. Decortication was carried out at each thoracic and lumbar region using a high-speed drill. Over the decorticated levels, nothing, gelmatrix, gelmatrix plus 8 mg lovastatin or gelmatrix plus 16 mg lovastatin were added. 8 mg I.M. of antibiotic Cefazolin™ was subcutaneously administered to each rat.
For purposes of analysis, the rats were divided into three groups. Group A consisting of rats 1-4 was treated with nothing or gelmatrix. Group B consisting of rats 5-8 was treated with gelmatrix and 8 mg of lovastatin. And, group C consisting of rats 9-12 was treated with gelmatrix and 16 mg of lovastatin. The following is a summary of the data:
After en bloc removal, two observers manually palpated the spine of each rat in a blinded fashion. Palpation was made by flexion and extension at the level of the arthrodesis and at the adjacent levels proximally and distally. […] Each motion segment was graded on a qualitative scale (0-3) based on the strength of the fusion. A solid fusion having no motion was given a score of 3. […] No fusion was scored as a 0. […]

## CC[C@H](C)C(=O)O[C@H]1C[C@@H](C)C=C2C=C[C@H](C)[C@H](CC[C@@H]3C[C@@H](O)CC(=O)O3)[C@H]21 [lovastatin]
Gelmatrix plus 8 mg or 16 mg lovastatin over decorticated thoracic or lumbar levels, blinded manual palpation, scale 0-3
  rats treated with lovastatin that had a stronger fusion at the treated region than rats not treated: seventy five
Gelmatrix plus 8 mg vs 16 mg lovastatin, FIG. 11
  dose dependence of fusion grades (palpation score 0-3): dose dependent
